The source of these data is patent US11267814B2, “Compounds for bone growth” (OsteoQC Inc., priority 2013, dated 2022).

SMILES strings stand for the structures. Structures can show the parent of a compound that is named as a salt.

One series addresses T1, sclerostin (Homo sapiens, UniProt Q9BQB4).
T1 construct: host or cells: human embryonic cells (reporter cells)
T1 sequence (Q9BQB4 24-213): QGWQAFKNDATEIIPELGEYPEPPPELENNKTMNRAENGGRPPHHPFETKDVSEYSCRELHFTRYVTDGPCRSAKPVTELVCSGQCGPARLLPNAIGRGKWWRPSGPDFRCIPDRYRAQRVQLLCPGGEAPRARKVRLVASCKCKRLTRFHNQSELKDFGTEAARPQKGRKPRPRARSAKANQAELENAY
Put plainly: Modulation of sclerostin/Wnt activity (sclerostin inhibition assay): restoring Wnt3a signaling in the presence of sclerostin. Conditions: IC100 class; Wnt3a signaling in human embryonic cells in presence of sclerostin. In kind it is cell-based.

In series [1] the test system is MC3T3-E1 (mouse calvarial) osteoblast cells. Put plainly: Rescue of sclerostin inhibition of mineralization (total calcium). To be noted: Mus musculus, MC3T3-E1; IC100 class; calcium concentration, MC3T3 osteoblast cells treated with sclerostin; read-out: Sclerostin Inhibition of Mineralization; improvement over sclerostin alone. It counts as cell-based. The method, then:
Mineralization (crystalline calcium phosphate formation) represents an in vitro model of bone formation. […] Following the protocol described in Li et al., Compounds were assayed for their ability to rescue the inhibition of mineralization by sclerostin in MC3T3 osteoblast cells.

A further series has as its system MC3T3 osteoblast cells. Put plainly: Osteocalcin (OCN) secretion, bone formation marker, ELISA. In kind it is cell-based, mouse. To be noted: Mus musculus; IC100 class; OCN secreted from MC3T3 osteoblast cells treated with sclerostin. The method, then:
Bone formation can also be assayed in vitro or in vivo using a serum marker for bone formation, osteocalcin (OCN), available from Biomedical Tecnhnologies, Inc. (Stoughton, Mass.). Following the manufacturer's protocol for the mouse osteocalcin EIA kit (described at the website www.btiinc.com/page/cata2.html#mouse_osteocalcin), bone formation in MC3T3 osteoblast cells was assayed by measuring the concentration of OCN.

Another series concerns the target T2, hERG potassium channel (Homo sapiens, UniProt Q12809).
T2 construct: expressed in transfected cells; host or cells: CHO-K1
Put plainly: hERG automated patch clamp assay. In kind it is cell-based. Conditions: inhibition of hERG tail current, 5 minutes at room temperature, CHO-K1 cells stably expressing hERG. The method, then: One major type of cardiovascular toxicity associated with pharmaceutical drugs is caused by drug effects on cardiac ion channels like hERG. Drug-induced inhibition of hERG results in a prolonged QT interval, which can lead to a life-threatening ventricular arrhythmia. Therefore, the inhibitory effect of compounds described in Examples 1-46 on the hERG potassium channel was evaluated using an automated patch clamp assay as described in Mathes, C. (2006) Expert Opin. Ther. Targets, 10 (2): 319-327. CHO-K1 cells stably expressing hERG channels were used.
(hERG is a cardiac potassium channel; its block is linked to QT prolongation.)

T2 sequence (Q12809 whole entry): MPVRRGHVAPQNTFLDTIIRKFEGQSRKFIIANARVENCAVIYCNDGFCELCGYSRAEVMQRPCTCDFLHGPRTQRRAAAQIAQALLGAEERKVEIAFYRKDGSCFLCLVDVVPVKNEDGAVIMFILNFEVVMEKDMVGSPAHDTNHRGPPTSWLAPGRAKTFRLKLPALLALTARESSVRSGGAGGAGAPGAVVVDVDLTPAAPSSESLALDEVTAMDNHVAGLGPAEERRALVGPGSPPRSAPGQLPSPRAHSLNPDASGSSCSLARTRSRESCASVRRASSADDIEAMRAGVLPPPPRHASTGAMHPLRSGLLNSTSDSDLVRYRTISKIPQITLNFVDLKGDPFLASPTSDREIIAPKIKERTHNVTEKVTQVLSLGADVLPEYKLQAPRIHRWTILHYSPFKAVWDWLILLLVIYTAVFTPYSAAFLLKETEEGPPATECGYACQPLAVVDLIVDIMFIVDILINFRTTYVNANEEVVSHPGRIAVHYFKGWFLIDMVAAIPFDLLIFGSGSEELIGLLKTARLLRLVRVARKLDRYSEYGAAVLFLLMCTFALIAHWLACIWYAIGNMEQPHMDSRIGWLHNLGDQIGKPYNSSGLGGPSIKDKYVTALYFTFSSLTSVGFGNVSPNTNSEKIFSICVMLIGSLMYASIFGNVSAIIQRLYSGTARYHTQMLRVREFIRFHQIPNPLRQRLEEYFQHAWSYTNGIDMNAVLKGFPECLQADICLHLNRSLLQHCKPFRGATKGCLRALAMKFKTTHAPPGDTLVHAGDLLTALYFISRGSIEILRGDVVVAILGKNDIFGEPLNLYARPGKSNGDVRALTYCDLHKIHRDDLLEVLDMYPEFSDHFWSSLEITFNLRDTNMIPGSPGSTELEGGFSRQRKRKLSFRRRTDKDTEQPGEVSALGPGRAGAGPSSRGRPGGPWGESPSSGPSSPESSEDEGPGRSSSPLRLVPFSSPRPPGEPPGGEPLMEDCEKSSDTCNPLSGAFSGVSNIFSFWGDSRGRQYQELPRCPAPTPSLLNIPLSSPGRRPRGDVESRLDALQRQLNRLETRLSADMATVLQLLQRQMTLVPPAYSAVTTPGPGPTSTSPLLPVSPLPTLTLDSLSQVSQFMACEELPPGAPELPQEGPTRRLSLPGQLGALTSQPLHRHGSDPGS

On to `CC1(C)COCCN1CCn1c2cc(O)ccc2c2ccnc(C(F)(F)F)c21` [Example 32, 9-(2-(3,3-dimethylmorpholino)ethyl)-1-(trifluoromethyl)-9H-pyrido[3,4-b]indol-7-ol], for which the “Sclerostin Inhibition Assay; improvement over sclerostin alone.” value on sclerostin is recorded as “++ (++ indicates an IC100 < 10 μM)”. For the same molecule, the IC100 (in series [1]; with MC3T3 osteoblast cells) was under 10 µM throughout. Also, the “hERG (1uM)” value on hERG potassium channel is reported as “+ (+ indicates less than 50% inhibition of hERG tail current)”.
In the case of `Cc1nccc2c3ccc(O)cc3n(CCN3CCOCC3)c12` [Example 13, 1-methyl-9-(2-morpholinoethyl)-9H-pyrido[3,4-b]indol-7-ol], the “Sclerostin Inhibition Assay; improvement over sclerostin alone.” value on sclerostin is “++ (++ indicates an IC100 < 10 μM)”. Besides, the IC100 (in series [1]; in the series with MC3T3 osteoblast cells) was under 10 µM in each case. Besides, the “hERG (1uM)” value on hERG potassium channel is “+ (+ indicates less than 50% inhibition of hERG tail current)”.
As to `COc1ccc2c(c1)[nH]c1c(C)[n+]([O-])ccc12` [Example 21, 7-methoxy-1-methyl-9H-pyrido[3,4-b]indole pyridine N-oxide], at sclerostin, the “Sclerostin Inhibition Assay; improvement over sclerostin alone.” value is “+ (+ indicates an IC100 > 10 μM)”. The IC100 (in series [1]; in the series with MC3T3 osteoblast cells) was over 10 µM in each case. Also, the “hERG (1uM)” value on hERG potassium channel was “+ (+ indicates less than 50% inhibition of hERG tail current)”.
Consider `COc1ccc2c(c1)[nH]c1c(C(F)(F)F)nccc12` [Example 22, 7-methoxy-1-(trifluoromethyl)-9H-pyrido[3,4-b]indole], for which the “Sclerostin Inhibition Assay; improvement over sclerostin alone.” value at sclerostin is reported as “++ (++ indicates an IC100 < 10 μM)”. Besides, the IC100 (in series [1]; with MC3T3 osteoblast cells) was under 10 µM each time. Also, on hERG potassium channel, the “hERG (1uM)” value is given as “+ (+ indicates less than 50% inhibition of hERG tail current)”.
As to `COc1ccc2c3ccnc(C)c3n(CCN(C)CCO)c2c1` [Example 18, 2-((2-(7-methoxy-1-methyl-9H-pyrido[3,4-b]indol-9-yl)ethyl)(methyl)amino)ethanol], at sclerostin, the “Sclerostin Inhibition Assay; improvement over sclerostin alone.” value is reported as “++ (++ indicates an IC100 < 10 μM)”. Also, the IC100 (in series [1]; with MC3T3 osteoblast cells) was under 10 µM each time. Moreover, the “hERG (1uM)” value on hERG potassium channel is reported as “+ (+ indicates less than 50% inhibition of hERG tail current)”.
With `COc1ccc2c3ccnc(C)c3n(CCCN3CCN(C(=O)OC(C)(C)C)CC3)c2c1` [Example 15, t-butyl 4-(3-(7-methoxy-1-methyl-9H-pyrido[3,4-b]indol-9-yl)propyl) piperazine-1-carboxylate], the “Sclerostin Inhibition Assay; improvement over sclerostin alone.” value at sclerostin was “++ (++ indicates an IC100 < 10 μM)”. Moreover, the IC100 (in series [1]; in the series with MC3T3 osteoblast cells) was under 10 µM in each case. In addition, at hERG potassium channel, the “hERG (1uM)” value is given as “++ (++ indicates more than 50% inhibition of hERG tail current)”.
On to `COc1ccc2c3ccnc(C(F)(F)F)c3n(CC(C)N(C)C)c2c1` (stereo not shown) [Example 27, 1-(7-methoxy-1-(trifluoromethyl)-9H-pyrido[3,4-b]indol-9-yl)-N,N-dimethylpropan-2-amine], for which the “Sclerostin Inhibition Assay; improvement over sclerostin alone.” value on sclerostin was “++ (++ indicates an IC100 < 10 μM)”. In addition, the IC100 (in series [1]; with MC3T3 osteoblast cells) was under 10 µM each time. The “hERG (1uM)” value at hERG potassium channel was “+ (+ indicates less than 50% inhibition of hERG tail current)”.
On to `COc1ccc2c3ccnc(C)c3n(CC(C)N(C)C)c2c1` (stereo not shown) [Example 3, 1-(7-methoxy-1-methyl-9H-pyrido[3,4-b]indol-9-yl)-N,N-dimethylpropan-2-aminium formate], for which the “Sclerostin Inhibition Assay; improvement over sclerostin alone.” value at sclerostin was “++ (++ indicates an IC100 < 10 μM)”. The IC100 (in series [1]; in the series with MC3T3 osteoblast cells) was under 10 µM in each case. Also, at hERG potassium channel, the “hERG (1uM)” value is recorded as “+ (+ indicates less than 50% inhibition of hERG tail current)”.
As to `COc1ccc2c3ccnc(C)c3n(CC(C)N3CCCCC3)c2c1` (stereo not shown) [Example 9, 7-methoxy-1-methyl-9-(2-(piperidin-1-yl)propyl)-9H-pyrido[3,4-b]indole], the “Sclerostin Inhibition Assay; improvement over sclerostin alone.” value on sclerostin is recorded as “++ (++ indicates an IC100 < 10 μM)”. Also, the IC100 (in series [1]; in the series on MC3T3 osteoblast cells) was under 10 µM throughout. For the same molecule, on hERG potassium channel, the “hERG (1uM)” value is “+ (+ indicates less than 50% inhibition of hERG tail current)”.
On to `COc1ccc2c(c1)[nH]c1c(C)nc(OC)cc12` [Example 40, 3,7-dimethoxy-1-methyl-9H-pyrido[3,4-b]indole], for which the “Sclerostin Inhibition Assay; improvement over sclerostin alone.” value on sclerostin was “++ (++ indicates an IC100 < 10 μM)”. Further, the IC100 (in series [1]; in the series with MC3T3 osteoblast cells) was under 10 µM in each case. For the same molecule, at hERG potassium channel, the “hERG (1uM)” value is given as “+ (+ indicates less than 50% inhibition of hERG tail current)”.
Take `Cc1nccc2c3ccc(O)cc3n(CC(C)N(C)C)c12` (stereo not shown) [Example 4, 9-(2-(dimethylamino)propyl)-1-methyl-9H-pyrido[3,4-b]indol-7-ol]: the “Sclerostin Inhibition Assay; improvement over sclerostin alone.” value at sclerostin was “++ (++ indicates an IC100 < 10 μM)”. In addition, the IC100 (in series [1]; in the series on MC3T3 osteoblast cells) was under 10 µM in each case. The “hERG (1uM)” value at hERG potassium channel is listed as “+ (+ indicates less than 50% inhibition of hERG tail current)”.
With `COc1ccc2c3ccnc(C(F)(F)F)c3n(CCN3CCOCC3)c2c1` [Example 25, 4-(2-(7-methoxy-1-(trifluoromethyl)-9H-pyrido[3,4-b]indol-9-yl)ethyl) morpholine], the “Sclerostin Inhibition Assay; improvement over sclerostin alone.” value at sclerostin is on record as “++ (++ indicates an IC100 < 10 μM)”. Also, the IC100 (in series [1]; in the series with MC3T3 osteoblast cells) was under 10 µM each time. Besides, on hERG potassium channel, the “hERG (1uM)” value is reported as “+ (+ indicates less than 50% inhibition of hERG tail current)”.
For `CC(Cn1c2ccccc2c2cccnc21)N(C)C` (stereo not shown) [Example 1, N,N-dimethyl-1-(9H-pyrido[2,3-b]indol-9-yl)propan-2-amine], the “Sclerostin Inhibition Assay; improvement over sclerostin alone.” value on sclerostin is recorded as “+ (+ indicates an IC100 > 10 μM)”. Further, the IC100 (in series [1]; in the series on MC3T3 osteoblast cells) was over 10 µM in each case. The “hERG (1uM)” value on hERG potassium channel is listed as “+ (+ indicates less than 50% inhibition of hERG tail current)”.
